What was measured:
[1] = tested on: cultured human mast cells (CHMC); experiment: CHMC low cell density ionomycin activation: tryptase assay; assay type: cell-based; conditions: 3 pt, read-out: LD Tryptase, CHMC, Iono, 3 pt
[2] = tested on: cultured human mast cells (CHMC); experiment: CHMC low cell density IgE activation: tryptase assay; assay type: cell-based; conditions: IgE activation
Method in brief: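 Tryptase release, fluorogenic substrate, 30 min RT. Prior anti-IgE stimulation of CHMC, 30 min, 37 °C, after 1 hr preincubation at 1000–1500 cells/well in MT; unstimulated wells received MT.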

[3] = low cell density CHMC, tryptase readout
[4] = low cell density CHMC, tryptase readout, 3 pt, read-out: LD Tryptase, CHMC, IgE, 3 pt
[5] = low cell density CHMC, tryptase readout, 8 pt, read-out: LD Tryptase, CHMC, IgE, 8 pt
[6] = Homo sapiens, Mast cell, low cell density CHMC, tryptase readout
[7] = Homo sapiens, Mast cell, low cell density CHMC, tryptase readout, 3 pt, read-out: LD Tryptase, CHMC, IgE, 3 pt
[8] = Homo sapiens, Mast cell, low cell density CHMC, tryptase readout, 8 pt, read-out: LD Tryptase, CHMC, IgE, 8 pt

Row | SMILES | IC50 [1, 3] [µM] | IC50 [2, 4] [µM] | IC50 [2, 5] [µM] | other results
1 | CCOc1c(C)cc(Nc2ncc(F)c(Nc3ccc4c(c3)NC(=O)C(C)(C)O4)n2)cc1Cl [Compound 1008, N2-(3-Chloro-4-ethoxy-5-methylphenyl)-N4-(2,2-dimethyl-3-oxo-4H-benz[1,4]oxazin-6-yl)-5-fluoro-2,4-pyrimidinediamine] |  |  |  | IC50 ([1]; Homo sapiens, Mast cell, low cell density): < 10 µM; IC50 ([2]; Homo sapiens, Mast cell, low cell density, 3 pt, read-out: LD Tryptase, CHMC, IgE, 3 pt): < 10 µM; IC50 ([2]; Homo sapiens, Mast cell, low cell density, 8 pt, read-out: LD Tryptase, CHMC, IgE, 8 pt): < 10 µM
2 | COc1c(C)cc(Nc2ncc(F)c(Nc3ccc4c(n3)N(C)C(=O)C(C)(C)O4)n2)cc1Cl [Compound 1009, N2-(3-Chloro-4-methoxy-5-methylphenyl)-5-fluoro-N4-(3-oxo-2,2,4-trimethyl-5-pyrid[1,4]oxazin-6-yl)-2,4-pyrimidinediamine] | > 10 | < 10 | < 10 | 
3 | CCOc1c(C)cc(Nc2ncc(F)c(Nc3ccc4c(n3)NC(=O)C(C)(C)O4)n2)cc1Cl [Compound 1010, N2-(3-Chloro-4-ethoxy-5-methylphenyl)-N4-(2,2-dimethyl-3-oxo-4H-5-pyrid[1,4]oxazin-6-yl)-5-fluoro-2,4-pyrimidinediamine] | > 10 | < 10 |  | 
4 | CC1(C)Oc2ccc(Nc3nc(Nc4ccc(-c5ncco5)cc4)ncc3F)cc2NC1=O [Compound 1011, N4-(2,2-Dimethyl-3-oxo-4H-benz[1,4]oxazin-6-yl)-5-fluoro-N2-[4-(oxazol-2-yl)phenyl]-2,4-pyrimidinediamine] |  |  |  | IC50 [1, 6]: > 10 µM; IC50 [2, 7]: < 10 µM; IC50 [2, 8]: < 10 µM
5 | CN1C(=O)C(C)(C)Oc2ccc(Nc3nc(Nc4cccc(-c5ncco5)c4)ncc3F)nc21 [Compound 1012, 5-Fluoro-N2-[3-(oxazol-2-yl)phenyl]-N4-[3-oxo-2,2,4-trimethyl-5-pyrid[1,4]oxazin-6-yl]-2,4-pyrimidinediamine] | > 10 | < 10 | < 10 | 
6 | CN1C(=O)C(C)(C)Oc2ccc(Nc3nc(Nc4ccc(-c5ncco5)cc4)ncc3F)nc21 [Compound 1013, 5-Fluoro-N2-[4-(oxazol-2-yl)phenyl]-N4-[3-oxo-2,2,4-trimethyl-5-pyrid[1,4]oxazin-6-yl]-2,4-pyrimidinediamine] | > 10 | < 10 |  | 
7 | CCOC(=O)COc1c(C)cc(Nc2ncc(F)c(Nc3ccc4c(c3)NC(=O)C(C)(C)O4)n2)cc1Cl [Compound 1014, N2-[3-Chloro-4-ethoxycarbonylmethyleneoxy-5-methylphenyl]-N4-(2,2-dimethyl-3-oxo-4H-benz[1,4]oxazin-6-yl)-5-fluoro-2,4-pyrimidinediamine] | < 10 | < 10 | < 10 | 
8 | CNC(=O)COc1cccc(Nc2ncc(F)c(Nc3ccc4c(n3)N(C)C(=O)C(C)(C)O4)n2)c1 [Compound 1015, 5-Fluoro-N2-[3-(N-methylamino)carbonylmethyleneoxyphenyl]-N4-[3-oxo-2,2,4-trimethyl-5-pyrid[1,4]oxazin-6-yl]-2,4-pyrimidinediamine] | > 10 | < 10 | < 10 | 
9 | CC1(C)Oc2ccc(Nc3nc(Nc4cccc(-c5cnco5)c4)ncc3F)cc2NC1=O [Compound 1016, N4-(2,2-Dimethyl-3-oxo-4H-benz[1,4]oxazin-6-yl)-5-fluoro-N2-[3-(oxazol-5-yl)phenyl]-2,4-pyrimidinediamine] |  |  |  | IC50 [1, 6]: > 10 µM; IC50 [2, 7]: < 10 µM; IC50 [2, 8]: < 10 µM
10 | CN1C(=O)C(C)(C)Oc2ccc(Nc3nc(Nc4cccc(-c5cnco5)c4)ncc3F)nc21 [Compound 1017, 5-Fluoro-N2-[3-(oxazol-5-yl)phenyl]-N4-[3-oxo-2,2,4-trimethyl-5-pyrid[1,4]oxazin-6-yl]-2,4-pyrimidinediamine] | > 10 | < 10 | < 10 | 
11 | Cc1cc(Nc2ncc(F)c(Nc3ccc4c(c3)NC(=O)C(C)(C)O4)n2)cc(Cl)c1OC1CCCC1 [Compound 1018, N2-[3-Chloro-4-cyclopentyloxy-5-methylphenyl]-N4-(2,2-dimethyl-3-oxo-4H-benz[1,4]oxazin-6-yl)-5-fluoro-2,4-pyrimidinediamine] |  |  |  | IC50 [1, 6]: > 10 µM; IC50 [2, 7]: < 10 µM; IC50 [2, 8]: < 10 µM

— US20220073536A1 (Rigel Pharmaceuticals, Inc., priority 2003, published 2022)
